Measurements taken from ChEMBL document CHEMBL1201862, “PubChem BioAssay data set” (2004).
Calls of active or inactive are those of the source.

How the values were obtained:
[1] = molecular target: Voltage-dependent T-type calcium channel subunit alpha-1H (Homo sapiens, UniProt O95180); type: functional;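 also: channel activity triggered by adding a high calcium stimulation buffer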
Protein skinhead-1 = molecular target: T1, Protein skinhead-1 (Caenorhabditis elegans, UniProt P34707); type: functional
T1 sequence (P34707 whole entry): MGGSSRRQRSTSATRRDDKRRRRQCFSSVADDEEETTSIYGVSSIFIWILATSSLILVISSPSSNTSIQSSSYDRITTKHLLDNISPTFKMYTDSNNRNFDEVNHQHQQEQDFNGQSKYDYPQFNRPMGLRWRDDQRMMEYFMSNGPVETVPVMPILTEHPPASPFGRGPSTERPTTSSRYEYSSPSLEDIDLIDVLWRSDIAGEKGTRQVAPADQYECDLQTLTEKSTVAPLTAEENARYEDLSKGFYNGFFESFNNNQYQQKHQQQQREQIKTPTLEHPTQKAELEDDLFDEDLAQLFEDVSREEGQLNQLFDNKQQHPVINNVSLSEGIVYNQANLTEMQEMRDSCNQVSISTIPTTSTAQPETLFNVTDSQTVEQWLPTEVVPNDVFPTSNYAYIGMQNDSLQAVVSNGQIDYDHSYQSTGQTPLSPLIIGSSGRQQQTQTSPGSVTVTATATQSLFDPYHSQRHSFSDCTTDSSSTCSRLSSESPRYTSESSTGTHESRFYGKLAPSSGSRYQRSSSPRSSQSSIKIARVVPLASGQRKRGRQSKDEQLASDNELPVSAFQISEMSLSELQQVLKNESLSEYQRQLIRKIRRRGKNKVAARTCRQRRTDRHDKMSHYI

[2] = molecular target: Peroxisome proliferator-activated receptor gamma/Nuclear receptor coactivator 1 (Homo sapiens, UniProt P37231); type: functional;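 also: agonist potency as compounds enhance coactivator SRC-1 recruitment to PPARgamma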
[3] = molecular target: Peroxisome proliferator-activated receptor gamma/Nuclear receptor coactivator 2 (Homo sapiens, UniProt P37231); type: functional;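 also: agonist potency for raising coactivator recruitment to the receptor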
[4] = molecular target: Peroxisome proliferator-activated receptor gamma/Nuclear receptor coactivator 3 (Homo sapiens, UniProt P37231); type: functional;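 also: agonist potency for raising coactivator recruitment to the receptor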
H9c2 = assay: cells; type: functional, cell-based; details: Rattus norvegicus, H9c2, Myocardium
[5] = molecular target: T2, Corticotropin-releasing factor receptor 2/Corticotropin-releasing factor-binding protein (Homo sapiens, UniProt P24387+Q13324); assay: Dose Response confirmation of uHTS hits for small molecule antagonists of the CRF-binding protein and CRF-R2 receptor complex.; type: functional; details: read-out: IC50_Mean
T2 sequence (Q13324 whole entry): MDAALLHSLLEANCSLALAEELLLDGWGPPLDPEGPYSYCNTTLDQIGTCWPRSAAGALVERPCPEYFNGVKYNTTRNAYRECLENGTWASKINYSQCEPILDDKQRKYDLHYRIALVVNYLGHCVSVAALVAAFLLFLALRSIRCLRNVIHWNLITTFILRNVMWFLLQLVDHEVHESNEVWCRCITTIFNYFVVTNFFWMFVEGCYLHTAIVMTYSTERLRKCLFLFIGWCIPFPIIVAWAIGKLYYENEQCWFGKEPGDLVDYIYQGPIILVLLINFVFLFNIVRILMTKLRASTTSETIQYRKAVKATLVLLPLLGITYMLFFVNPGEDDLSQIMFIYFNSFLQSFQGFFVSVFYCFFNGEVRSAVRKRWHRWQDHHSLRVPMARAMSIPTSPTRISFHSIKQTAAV
T2 sequence (P24387 whole entry): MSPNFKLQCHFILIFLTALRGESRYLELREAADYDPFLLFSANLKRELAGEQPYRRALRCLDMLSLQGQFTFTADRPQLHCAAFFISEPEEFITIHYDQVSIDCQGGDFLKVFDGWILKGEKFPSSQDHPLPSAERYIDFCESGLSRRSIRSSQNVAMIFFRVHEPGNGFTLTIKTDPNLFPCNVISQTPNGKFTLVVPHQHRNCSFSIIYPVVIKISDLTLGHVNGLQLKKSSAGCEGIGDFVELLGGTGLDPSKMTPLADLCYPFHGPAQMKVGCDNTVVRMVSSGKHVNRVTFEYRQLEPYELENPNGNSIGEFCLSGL

[6] = molecular target: T2, Corticotropin-releasing factor receptor 2/Corticotropin-releasing factor-binding protein; assay: activators of CRF receptor 2 with binding protein – uHTS hits, confirmation (AID 602473); type: functional; details: read-out: EC50_Mean
Genome polyprotein = Genome polyprotein (dengue virus type 2, UniProt P29990); assay: flavivirus cap methylation enzyme inhibition – biochemical, confirmation dose response, primary screen (AID 588689); type: functional
Genome polyprotein, sequence (P29990 2492-3391 limits assumed): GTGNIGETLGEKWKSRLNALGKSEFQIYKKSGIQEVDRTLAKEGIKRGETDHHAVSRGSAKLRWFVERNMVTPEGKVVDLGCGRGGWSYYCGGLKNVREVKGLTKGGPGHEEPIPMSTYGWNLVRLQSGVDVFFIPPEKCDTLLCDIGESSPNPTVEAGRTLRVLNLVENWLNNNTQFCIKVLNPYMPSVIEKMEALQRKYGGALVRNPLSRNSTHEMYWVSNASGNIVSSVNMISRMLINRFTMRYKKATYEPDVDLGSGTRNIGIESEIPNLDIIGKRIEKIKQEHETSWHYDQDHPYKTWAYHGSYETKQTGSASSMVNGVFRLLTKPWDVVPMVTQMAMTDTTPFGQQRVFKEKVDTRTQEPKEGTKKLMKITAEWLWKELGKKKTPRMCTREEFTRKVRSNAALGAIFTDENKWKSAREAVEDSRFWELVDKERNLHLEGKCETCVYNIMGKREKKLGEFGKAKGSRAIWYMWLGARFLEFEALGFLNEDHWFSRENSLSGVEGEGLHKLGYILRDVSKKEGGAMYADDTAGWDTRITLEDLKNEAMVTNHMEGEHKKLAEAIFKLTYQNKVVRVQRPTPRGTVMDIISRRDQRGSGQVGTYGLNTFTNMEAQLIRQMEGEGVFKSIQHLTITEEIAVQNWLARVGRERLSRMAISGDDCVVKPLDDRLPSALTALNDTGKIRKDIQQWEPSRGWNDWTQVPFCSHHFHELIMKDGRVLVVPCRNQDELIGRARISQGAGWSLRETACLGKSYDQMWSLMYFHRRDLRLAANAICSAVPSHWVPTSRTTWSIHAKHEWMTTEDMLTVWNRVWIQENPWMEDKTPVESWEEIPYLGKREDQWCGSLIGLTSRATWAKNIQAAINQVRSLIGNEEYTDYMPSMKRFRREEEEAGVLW

Cytochrome P450 3A4 = Cytochrome P450 3A4 (Homo sapiens, UniProt P08684);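 also: CYP3A4 tested as one member of a cytochrome P450 panel screen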
Cytochrome P450 3A4, sequence (P08684 whole entry): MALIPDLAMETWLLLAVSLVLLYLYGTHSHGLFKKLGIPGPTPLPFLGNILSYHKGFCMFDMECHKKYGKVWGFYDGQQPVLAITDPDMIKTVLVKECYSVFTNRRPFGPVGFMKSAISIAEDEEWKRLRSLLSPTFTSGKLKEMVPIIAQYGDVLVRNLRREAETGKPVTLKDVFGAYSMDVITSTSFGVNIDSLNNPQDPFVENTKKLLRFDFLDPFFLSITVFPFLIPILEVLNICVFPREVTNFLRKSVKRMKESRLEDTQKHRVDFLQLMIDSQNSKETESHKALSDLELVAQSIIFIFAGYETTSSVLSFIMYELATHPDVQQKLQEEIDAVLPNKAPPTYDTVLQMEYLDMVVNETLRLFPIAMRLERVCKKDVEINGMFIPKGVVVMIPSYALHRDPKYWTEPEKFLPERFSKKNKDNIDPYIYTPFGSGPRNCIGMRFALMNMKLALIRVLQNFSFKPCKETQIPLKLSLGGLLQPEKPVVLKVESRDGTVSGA

[7] = Trypanosoma cruzi growth suppression in host cells – NIH3T3 host cells, beta-gal luminescence, confirmation (AID 2044); type: functional, cell-based;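 also: intracellular parasites grown in NIH/3T3 mouse fibroblasts as host cells; luminescent beta-galactosidase reporter signal from transgenic T. cruzi replicating inside host cells; inhibitors lower the luminescence signal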
[8] = alpha-synuclein stem-loop luciferase translation blockers – H4 neuroglioma cells, luminescence, confirmation (AID 1988); type: functional, cell-based
[9] = luciferase reporter signal suppression in cells – H4 neuroglioma cells, luminescence, dose response (AID 1990); type: functional, cell-based
[10] = Luminescence Cell-Based Dose Response HTS to Identify Inhibitors of 5'UTR Stem-Loop Driven Prion Protein mRNA Translation in H4 Neuroglioblastoma Cells. [Related pubchem assays: 1827 (Project Summary), 1813 (Primary HTS)]; type: functional
cells = type: functional
[11] = THP-1 cell cytotoxicity, dose response, cytotoxicity control for non-replicating M. tuberculosis project (AID 489025); type: functional
[12] = NIH3T3 cell viability loss – ATP luminescence, mouse fibroblasts, counter-screen, dose response (AID 2010); type: functional, cell-based;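 also: cells exposed to compound for about 90 hours before reading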
[13] = molecular target: T3, Short transient receptor potential channel 4 (Mus musculus, UniProt Q9QUQ5); assay: calcium entry via TRPC4 opening agents – cell-based, HEK293 TRPC4/mu-opioid, Fluo-4 calcium, dose response (AID 434937); type: functional
T3 sequence (Q9QUQ5 whole entry): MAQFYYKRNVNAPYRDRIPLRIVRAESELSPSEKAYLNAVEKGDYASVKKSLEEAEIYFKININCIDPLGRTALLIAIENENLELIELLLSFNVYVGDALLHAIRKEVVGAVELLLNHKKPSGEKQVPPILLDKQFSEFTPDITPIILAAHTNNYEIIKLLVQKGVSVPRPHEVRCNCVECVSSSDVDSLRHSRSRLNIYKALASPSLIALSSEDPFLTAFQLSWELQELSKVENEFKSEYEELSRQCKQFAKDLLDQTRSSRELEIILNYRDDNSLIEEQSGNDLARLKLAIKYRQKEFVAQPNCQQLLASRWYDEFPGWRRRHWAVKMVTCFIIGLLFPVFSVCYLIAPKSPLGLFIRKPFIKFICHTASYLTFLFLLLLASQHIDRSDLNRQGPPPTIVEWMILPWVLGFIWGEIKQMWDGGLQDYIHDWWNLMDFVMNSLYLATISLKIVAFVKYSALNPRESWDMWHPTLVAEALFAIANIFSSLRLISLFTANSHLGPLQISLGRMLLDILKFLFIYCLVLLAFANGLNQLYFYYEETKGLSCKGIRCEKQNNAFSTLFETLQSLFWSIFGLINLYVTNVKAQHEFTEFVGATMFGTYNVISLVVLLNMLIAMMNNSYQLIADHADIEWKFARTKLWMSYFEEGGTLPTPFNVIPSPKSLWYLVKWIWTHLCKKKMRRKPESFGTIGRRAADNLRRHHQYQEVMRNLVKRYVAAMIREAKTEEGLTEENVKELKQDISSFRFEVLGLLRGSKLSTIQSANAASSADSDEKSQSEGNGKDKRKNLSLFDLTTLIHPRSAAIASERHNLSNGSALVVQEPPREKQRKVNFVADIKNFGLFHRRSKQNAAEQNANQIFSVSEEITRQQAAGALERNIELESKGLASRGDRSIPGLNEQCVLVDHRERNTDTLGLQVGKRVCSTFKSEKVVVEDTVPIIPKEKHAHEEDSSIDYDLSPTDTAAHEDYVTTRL

HEK293 [14] = assay: cells; type: functional, cell-based; details: Homo sapiens
HEK293 [15] = assay: inhibition of NOD1-driven NF-kB reporter – cell-based, luminescence, uHTS, primary screen (AID 1578); type: functional; details: Homo sapiens
HEK293 [16] = assay: NOD2 signaling inhibitors in MDP-stimulated cells, cell-based, uHTS, luminescence (AID 2001); type: functional; details: Homo sapiens
Cytochrome P450 1A2 = molecular target: T4, Cytochrome P450 1A2 (Homo sapiens, UniProt P05177);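 also: PubChem cytochrome P450 panel assay, CYP1A2 panel member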
T4 sequence (P05177 whole entry): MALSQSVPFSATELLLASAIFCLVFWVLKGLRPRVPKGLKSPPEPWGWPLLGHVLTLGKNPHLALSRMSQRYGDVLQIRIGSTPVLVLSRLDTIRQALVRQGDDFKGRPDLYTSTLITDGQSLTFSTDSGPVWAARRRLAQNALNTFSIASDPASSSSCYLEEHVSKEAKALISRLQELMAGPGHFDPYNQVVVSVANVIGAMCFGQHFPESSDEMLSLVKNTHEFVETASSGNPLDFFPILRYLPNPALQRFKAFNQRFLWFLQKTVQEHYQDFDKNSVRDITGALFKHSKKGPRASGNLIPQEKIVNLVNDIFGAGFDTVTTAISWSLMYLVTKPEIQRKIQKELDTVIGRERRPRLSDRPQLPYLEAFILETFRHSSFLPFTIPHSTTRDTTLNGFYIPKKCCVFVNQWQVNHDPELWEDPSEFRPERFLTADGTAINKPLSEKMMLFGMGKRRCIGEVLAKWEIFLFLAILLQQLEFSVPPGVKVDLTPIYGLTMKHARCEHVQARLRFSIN

Fatty acid synthase = Fatty acid synthase (Homo sapiens, UniProt P49327); assay: inhibition of human FAS-TE enzyme activity – biochemical, kinetic fluorescence intensity, dose response (AID 624326); type: functional;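 also: rate of fluorescence rise from hydrolysis of a fluorogenic O-methyl fluorescein ester substrate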
SN12K1 = assay: cells; type: functional; details: Homo sapiens
P388/ADR = assay: cells; type: functional; details: Mus musculus
[17] = Luminescence Cell-Based Dose Retest to Confirm Inhibitors of Cancer Stem Cells. [Related pubchem assays (depositor defined):AID2717, AID2721]; type: functional; details: Homo sapiens
[18] = viability of HCT116 lacking mutant beta-catenin – cell-based, human colon tumor, dose response (AID 1045); type: functional;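 also: HCT116 colon tumor cells with beta catenin knocked out; cells exposed to compound for 60 hours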
[19] = viability of PTEN-deleted HCT116 cells – cell-based, HCT116 PTEN knockout, dose response (AID 1047); type: functional;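 also: HCT116 colon tumor cells with PTEN knocked out; cells exposed to compound for 60 hours before readout; potency for loss of cell viability measured by luminescence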

Voltage-dependent T-type calcium channel subunit alpha-1H, sequence (O95180 whole entry): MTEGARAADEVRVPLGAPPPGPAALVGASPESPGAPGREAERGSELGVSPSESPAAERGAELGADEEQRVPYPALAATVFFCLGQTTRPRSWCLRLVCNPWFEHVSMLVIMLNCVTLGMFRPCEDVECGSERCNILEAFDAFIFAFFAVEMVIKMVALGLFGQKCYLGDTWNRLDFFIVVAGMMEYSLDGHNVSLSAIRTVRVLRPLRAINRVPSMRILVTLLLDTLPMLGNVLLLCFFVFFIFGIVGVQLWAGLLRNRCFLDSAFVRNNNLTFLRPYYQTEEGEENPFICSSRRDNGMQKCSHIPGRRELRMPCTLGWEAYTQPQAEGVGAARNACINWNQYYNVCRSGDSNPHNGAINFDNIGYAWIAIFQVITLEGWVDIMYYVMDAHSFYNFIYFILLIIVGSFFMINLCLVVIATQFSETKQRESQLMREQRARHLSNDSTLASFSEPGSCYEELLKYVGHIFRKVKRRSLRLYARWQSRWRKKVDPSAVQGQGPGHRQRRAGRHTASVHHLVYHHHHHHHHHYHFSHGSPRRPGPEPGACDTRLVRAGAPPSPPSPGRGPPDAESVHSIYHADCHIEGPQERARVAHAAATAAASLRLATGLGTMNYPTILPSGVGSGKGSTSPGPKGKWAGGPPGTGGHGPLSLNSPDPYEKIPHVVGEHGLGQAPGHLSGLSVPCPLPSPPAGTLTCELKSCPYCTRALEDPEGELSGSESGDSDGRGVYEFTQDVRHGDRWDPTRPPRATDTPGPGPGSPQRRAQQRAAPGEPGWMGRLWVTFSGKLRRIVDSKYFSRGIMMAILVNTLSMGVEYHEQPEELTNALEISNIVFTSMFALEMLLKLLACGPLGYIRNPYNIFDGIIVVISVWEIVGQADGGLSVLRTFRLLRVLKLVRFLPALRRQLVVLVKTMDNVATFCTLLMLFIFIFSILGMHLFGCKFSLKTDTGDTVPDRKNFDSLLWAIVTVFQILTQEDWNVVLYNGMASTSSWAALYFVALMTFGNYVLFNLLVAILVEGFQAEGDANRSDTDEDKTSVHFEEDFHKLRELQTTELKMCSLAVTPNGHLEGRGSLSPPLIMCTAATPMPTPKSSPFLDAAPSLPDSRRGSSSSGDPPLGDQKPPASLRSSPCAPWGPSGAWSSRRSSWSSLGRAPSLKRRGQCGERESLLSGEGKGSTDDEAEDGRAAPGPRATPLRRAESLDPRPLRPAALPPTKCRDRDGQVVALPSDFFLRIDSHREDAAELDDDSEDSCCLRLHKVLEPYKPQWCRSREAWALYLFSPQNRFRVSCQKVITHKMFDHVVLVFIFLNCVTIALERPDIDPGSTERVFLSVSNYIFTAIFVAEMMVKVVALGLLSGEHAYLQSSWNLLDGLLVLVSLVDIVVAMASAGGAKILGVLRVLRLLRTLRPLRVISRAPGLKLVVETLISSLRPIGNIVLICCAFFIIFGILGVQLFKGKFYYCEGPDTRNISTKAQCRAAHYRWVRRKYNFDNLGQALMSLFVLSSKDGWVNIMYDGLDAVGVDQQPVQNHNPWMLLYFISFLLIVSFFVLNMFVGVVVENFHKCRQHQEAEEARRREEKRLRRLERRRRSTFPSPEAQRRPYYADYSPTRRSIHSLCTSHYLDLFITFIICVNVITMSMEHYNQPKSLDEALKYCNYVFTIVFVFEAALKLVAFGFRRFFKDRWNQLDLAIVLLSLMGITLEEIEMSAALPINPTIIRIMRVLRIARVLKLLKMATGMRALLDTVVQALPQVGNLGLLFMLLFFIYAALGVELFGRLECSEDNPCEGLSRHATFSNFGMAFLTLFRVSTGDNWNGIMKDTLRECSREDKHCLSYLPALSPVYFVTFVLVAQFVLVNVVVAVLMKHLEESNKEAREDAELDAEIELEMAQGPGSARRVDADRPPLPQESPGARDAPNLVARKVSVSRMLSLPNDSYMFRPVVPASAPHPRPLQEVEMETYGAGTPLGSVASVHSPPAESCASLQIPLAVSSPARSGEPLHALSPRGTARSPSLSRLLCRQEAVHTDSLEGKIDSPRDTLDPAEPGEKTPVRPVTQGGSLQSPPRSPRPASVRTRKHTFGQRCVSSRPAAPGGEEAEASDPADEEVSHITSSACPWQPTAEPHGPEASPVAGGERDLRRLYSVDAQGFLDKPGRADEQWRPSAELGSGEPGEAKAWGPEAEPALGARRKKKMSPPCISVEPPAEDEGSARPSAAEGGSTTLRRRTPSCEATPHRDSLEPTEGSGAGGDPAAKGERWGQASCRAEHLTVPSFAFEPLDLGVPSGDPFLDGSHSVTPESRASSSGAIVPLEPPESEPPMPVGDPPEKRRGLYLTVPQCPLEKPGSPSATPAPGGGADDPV

## COc1ccccc1NC(=O)c1nnn(Cc2ccccc2)c1NC(=O)C(F)(F)F
[1]
  EC50: 3.86 µM (active)

## COc1ccccc1C(=O)Nc1ccc(Br)c2cccnc12
Protein skinhead-1
  IC50: > 100 µM (inactive)

## CCN(CC)CCn1c(NC(=O)c2ccc(Cl)cc2)nc2ccccc21
[2]
  EC50: > 79.4 µM (not active)
[3]
  EC50: > 79.4 µM (not active)
[4]
  EC50: > 79.4 µM (not active)
H9c2
  IC50: > 79 µM (inactive)

## Cn1c(=O)n(C)c2cc(/C=C(/C#N)C(=O)NCc3ccco3)ccc21
Protein skinhead-1
  IC50: > 100 µM (inactive)

## COC(=O)c1cnn(-c2nc3c(C)cccc3s2)c1C
[2]
  EC50: 54.5 µM (not active)
[3]
  EC50: 30 µM (not active)
[4]
  EC50: 67 µM (not active)

## O=C(COc1ccc(Cl)cc1)NCCSCc1cccc(Cl)c1
[1]
  EC50: 3.76 µM (active)

## Cc1ccc(NS(=O)(=O)c2cccs2)cc1S(=O)(=O)N1CCCCCC1
[5]
  IC50: > 47.1 µM (inactive)
[2]
  EC50: > 79.4 µM (not active)
[3]
  EC50: > 79.4 µM (not active)
[4]
  EC50: > 79.4 µM (not active)
[6]
  EC50: > 53 µM (inactive)

## Cc1ccc(S(=O)(=O)NC(=O)COc2ccccc2)cc1
[2]
  EC50: > 79.4 µM (not active)
[3]
  EC50: > 79.4 µM (not active)
[4]
  EC50: > 79.4 µM (not active)

## CN1C(=O)C(=Cc2ccccc2Oc2ccc(Cl)c(F)c2)C(=O)N(C)C1=O
Genome polyprotein
  IC50: 51.9 µM (active)
Cytochrome P450 3A4
  AC50: 14.1 µM (inconclusive)

## CSc1ccc(Cl)c(C(=O)NCc2ccco2)c1
Protein skinhead-1
  IC50: > 100 µM (inactive)

## O=C(CSc1nc2ccccc2[nH]1)Nc1ccc2c(c1)OCCO2
[1]
  EC50: 13.3 µM (active)

## Cc1cc(OCCCCn2ccnc2)cc(C)c1Cl
[7]
  EC50: 0.145 µM (active)
[8]
  EC50: 16 µM (active)
[9]
  EC50: > 120 µM (not active)
[10]
  EC50: > 120 µM (not active)
cells
  IC50: 15.8 µM (active)
[11]
  CC50: 33.2 µM (active)
[12]
  EC50: > 60 µM (not active)
[13]
  EC50: 5.31 µM (active)

## COc1cc(/C=C2/CCc3ccccc3C2=O)cc(OC)c1OC
HEK293 [14]
  IC50: > 20 µM (inactive)
HEK293 [15]
  EC50: > 20 µM (inactive)
HEK293 [16]
  IC50: 9.24 µM (active)

## O=C(Nc1ccn(Cc2ccccc2F)n1)c1ccc(COc2cc(Cl)ccc2Cl)o1
Cytochrome P450 1A2
  AC50: 3.55 µM (inconclusive)
[1]
  EC50: 7.11 µM (active)

## COc1ccccc1N(O)C1CC(=O)N(c2ccc(Br)cc2)C1=O (centres undefined)
Genome polyprotein
  IC50: 34.7 µM (active)

## CCc1nc2c(OCc3ccc(C(F)(F)F)cc3)cccn2c1N(C=O)Cc1ccc(OC)cc1
Fatty acid synthase
  IC50: 9.21 µM (active)

## CC(=O)Oc1c(OC(C)=O)c(-c2ccc(O)c(O)c2)c(O)c(O)c1-c1ccc(O)cc1
SN12K1
  GI50: > 100 µM (inactive)
P388/ADR
  GI50: 20.7 µM (inactive)

## C/C(CC(c1ccccc1)c1c(O)oc2ccccc2c1=O)=N\Nc1ccc([N+](=O)[O-])cc1[N+](=O)[O-] (centres undefined)
Genome polyprotein
  IC50: 94.4 µM (active)

## Cc1ccc(-c2ccc(/C=N/N3C(=O)C4C5C=CC(C6CC56)C4C3=O)o2)c([N+](=O)[O-])c1 (centres undefined)
[1]
  EC50: 7.22 µM (active)

## Cc1snc(S(=O)(=O)/C(C#N)=N/Nc2ccc(C(F)(F)F)cc2)c1C#N
[17]
  AC50: 7.49 µM (active)
[1]
  EC50: 6.48 µM (active)

## CCN1CCCC1CNC(=O)c1cc2c(-c3ccc(Cl)cc3)nn(C)c2s1 (centres undefined)
[18]
  EC50: 5.02 µM (active)
[2]
  EC50: > 79.4 µM (not active)
[19]
  EC50: 5.98 µM (active)
[3]
  EC50: > 79.4 µM (not active)
[4]
  EC50: > 79.4 µM (not active)
